The record followed here is patent publication US20070042938A1, “Use of dpiv and apn inhibitors for the treatment of dermatalogical diseases involving the hyperproliferation and modified differentiation conditions of fibroblasts” (priority 2003, published 2007).

The subject of this experiment is human fibroblasts. Put plainly: DNA synthesis of human fibroblasts (3[H]-thymidine incorporation). To be noted: fibroblasts of healthy donors, 48 h incubation with inhibitor, then 3[H]-methyl thymidine for further 6 h; dose-dependent (FIG. 3). It counts as cell-based. Here is the method:
Fibroblasts of healthy donors were incubated for 48 h together with the above-mentioned inhibitors, and the DNA synthesis was determined subsequently by a measurement of the ^3[H]-thymidine incorporation, as described by Reihold et al. (Reinhold D et al.: Inhibitors of dipeptidyl peptidase IV induce secretion of transforming growth factor β1 in PWM-stimulated PBMNC and T cells, Immunology 1997, 91: 354-360).
For measuring the dose-dependent effect of inhibitors of DP IV (Lys[Z(NO2)] thiazolidide) and of aminopeptidase N (Actinonin) on the DNA synthesis of human fibroblasts, cells were incubated for 48 h with the indicated concentrations of the inhibitors. Subsequently, ^3[H]-Methyl thymidine was added to the culture medium, and the amount of ^3[H]-thymidine incorporated into the DNA was measured after further 6 h.
For orientation: Uptake of a labelled nucleoside into DNA is a usual measure of proliferation.

For the compound `CCCCC[C@H](CC(=O)NO)C(=O)N[C@H](C(=O)N1CCC[C@H]1CO)C(C)C` [Actinonin], the “inhibition of the DNA synthesis of human fibroblasts” value was “inhibited”.

For `N[C@@H](CCCCNC(=O)OCc1ccc([N+](=O)[O-])cc1)C(=O)N1CCSC1` [Lys[Z(NO2)] thiazolidide], the “inhibition of the DNA synthesis of human fibroblasts” value is listed as “inhibited”.
